Legend:
transglutaminase (TGase) = experiment: Measurement of TG (TGase inhibitory activity, monodansyl cadaverine / N,N-dimethylcasein fluorescence, FDSS 3000); type: biochemical
Outline: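 Compound (1 μL of 10 mM stock) added to 0.1 mL reaction: 100 mM HEPES-NaOH pH 7.5, 1 mM CaCl2, 20 μM monodansyl cadaverine, 0.05 mg/mL N,N-dimethylcasein, 5 μg/mL TGase. Rate of fluorescence change at 340 nm measured; DMSO control set to 100; TG50 is the concentration halving activity.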

[1] = tested on: Truncated N-terminal huntington 150 Q-EGFP-Neuron 2a cells; experiment: Measurement of x-Fold (polyglutamine aggregation inhibitory activity); type: cell-based
Procedure: In the present invention, the polyglutamine aggregation inhibitory activity (x-Fold) can be measured, for example, by the method described in the Example.
The number of the aggregated cells, and the total number of cells were counted by Array Scan V T1 (manufactured by Cellomics, Pittuburg, USA), and the ratio of the aggregated cells to the total number of cells was determined (x-Fold). […]

[2] = TGase activity with compound (10 mM, 1 μL in 0.1 ml enzyme reaction solution), DMSO control taken as 100
[3] = TGase inhibitory activity value, Table 1
[4] = polyglutamine aggregation inhibitory activity, Table 1
[5] = ratio of aggregated cells to total number of cells, compound 20 μM, 20 hr, almost 1 without compound, smaller = stronger inhibition
[6] = TGase inhibitory activity measurement, unit not given
[7] = polyglutamine aggregation, Truncated N-terminal huntington 150 Q-EGFP-Neuron 2a cells

Row | TGase activity remaining (% of DMSO control = 100) (transglutaminase (TGase); [2]) | TGase activity remaining (% of DMSO control = 100) (transglutaminase (TGase); [3]) | TGase activity remaining (% of DMSO control = 100) (transglutaminase (TGase); [6]) | Structure (SMILES) | x-Fold [1, 4] | x-Fold [1, 5] | x-Fold [1, 7]
1 | 112 | 112 |  | Cc1cc(B(O)c2ccccc2)ccc1B(O)c1ccccc1 [Example 358, 2,5-di(phenylhydroxyboryl)toluene] | 0.91 | 0.91 | 
2 | 139 | 139 |  | OB(c1ccccc1)c1ccc2ccccc2c1-c1c(B(O)c2ccccc2)ccc2ccccc12 [Example 359, 2,2′-di(phenylhydroxyboryl)-1,1′-binaphthyl] | 0.96 | 0.96 | 
3 | 88 | 88 |  | NCCOB(c1ccccc1)c1ccc2ccccc2c1-c1c(B(OCCN)c2ccccc2)ccc2ccccc12 [Example 360, 2,2′-di(phenylaminoethoxyboryl)-1,1′-binaphthyl] | 1.05 | 1.05 | 
4 | 52 | 52 |  | OB(c1ccccc1)c1ccccc1CCOCc1ccccc1B(O)c1ccccc1 [Example 368, (2-(phenylhydroxyboryl)phenethyl)((2-phenylhydroxyboryl)benzyl)ether] | 1.03 | 1.03 | 
5 | 92 | 92 |  | OB(c1ccccc1)c1ccc(COCCOc2ccc(B(O)c3ccccc3)cc2)cc1 [Example 379, (4-(phenylhydroxyboryl)phenoxyethyl)(4-(phenylhydroxyboryl)benzyl)ether] | 0.74 | 0.74 | 
6 | 92 | 92 |  | NCCOB(c1ccccc1)c1ccc(COCCOc2ccc(B(OCCN)c3ccccc3)cc2)cc1 [Example 380, (4-(phenylaminoethoxyboryl)phenoxyethyl)(4-(phenylaminoethoxyboryl)benzyl)ether] | 0.67 | 0.67 | 
7 | 55 | 55 |  | OB(c1ccccc1)c1cccc(-c2cccc(B(O)c3ccccc3)n2)n1 [Example 381, 6,6′-(phenylhydroxyboryl)-2,2′-dipyridyl] | 0.80 | 0.80 | 
8 | 76 | 76 |  | NCCOB(c1ccccc1)c1cccc(-c2cccc(B(OCCN)c3ccccc3)n2)n1 [Example 382, 6,6′-(phenylaminoethoxyboryl)-2,2′-dipyridyl] | 0.80 | 0.80 | 
9 | 103 | 103 |  | OB(c1ccccc1)c1ccc(B(O)c2ccccc2)o1 [Example 383, bis(2,5-(phenylhydroxyboryl))furan] | 0.92 | 0.92 | 
10 | 96 | 96 |  | OB(c1ccccc1)c1ccc2sc3ccc(B(O)c4ccccc4)cc3c2c1 [Example 387, 2,8-di(phenylhydroxyboryl)dibenzothiophene] | 0.73 | 0.73 | 

Further lines, the compound ahead of its results:

Row | Structure (SMILES) | TGase activity remaining (% of DMSO control = 100) (transglutaminase (TGase); [2]) | TGase activity remaining (% of DMSO control = 100) (transglutaminase (TGase); [3]) | TGase activity remaining (% of DMSO control = 100) (transglutaminase (TGase); [6]) | x-Fold [1, 4] | x-Fold [1, 5] | x-Fold [1, 7]
11 | Cc1ccc(NCCOBc2ccc(COCc3ccc(BOCCNc4ccc(C)cc4)cc3)cc2)cc1 [Example 362, bis(4-(4-methylphenylaminoethoxyboryl)benzyl)ether] | 108 | 108 |  | 1.08 | 1.08 | 
12 | Cc1ccc(B(O)c2ccc(-c3ccc(B(O)c4ccc(C)cc4)cc3)cc2)cc1 [Example 363, 4,4′-(4-methylphenylhydroxyboryl)diphenyl] | 97 | 97 |  | 0.92 | 0.92 | 
13 | Cc1ccc(B(OCCN)c2ccc(-c3ccc(B(OCCN)c4ccc(C)cc4)cc3)cc2)cc1 [Example 364, 4,4′-(4-methylphenylaminoethoxyboryl)diphenyl] | 44 | 44 |  | 0.82 | 0.82 | 
14 | Cc1ccc(B(O)c2ccc(Oc3ccc(B(O)c4ccc(C)cc4)cc3)cc2)cc1 [Example 365, 4,4′-(4-methylphenylhydroxyboryl)diphenylether] | 118 | 118 |  | 0.91 | 0.91 | 
15 | Cc1ccc(B(O)c2ccc(Oc3ccc(B(O)c4ccc(C)c(Cl)c4)cc3)cc2)cc1Cl [Example 367, 4,4′-bis(3-chloro-4-methyl-phenylhydroxyboryl)diphenylether] | 113 | 113 |  | 0.73 | 0.73 | 
16 | Cc1ccc(Cl)cc1B(OCC1CCCCN1)c1cc(Cl)ccc1C (centres unmarked) [Example 371] |  | 98 |  | 1.17 |  | 
17 | OB(c1ccc(C(F)(F)F)cc1)c1c2ccccc2c(B(O)c2ccc(C(F)(F)F)cc2)c2ccccc12 [Example 374] | 17 | 17 |  | 1.14 | 1.14 | 
18 | NCCOB(c1ccc(C(F)(F)F)cc1)c1c2ccccc2c(B(OCCN)c2ccc(C(F)(F)F)cc2)c2ccccc12 [Example 375] | 44 | 44 |  | 1.05 | 1.05 | 
19 | NCCOB(c1cccc(COCc2cccc(B(OCCN)c3cccc4ccccc34)c2)c1)c1cccc2ccccc12 [Example 376, bis(3-(1-naphthylaminoethoxyboryl)benzyl)ether] | 75 | 75 |  | 0.93 | 0.93 | 
20 | CC(C)(C)c1cc(B(OCCN)c2ccccc2)c2c(c1)C(C)(C)c1cc(C(C)(C)C)cc(B(OCCN)c3ccccc3)c1O2 [Example 378, 4,5-di(phenylaminoethoxyboryl)-2,7-di-tert-butyl-9,9-dimethylxanthrene] | 88 | 88 |  | 0.79 | 0.79 | 
21 | NCCOB(c1ccccc1)c1ccc(B(OCCN)c2ccccc2)o1 [Example 384, bis(2,5-(phenylaminoethoxyboryl))furan] | 60 | 60 |  | 1.05 | 1.05 | 
22 | CN(C)CCOB(c1ccccc1)c1ccc(Oc2ccc(B(OCCN(C)C)c3ccccc3)cc2)cc1 [Example 385, bis(4,4′-(phenyl-N,N-dimethylaminoethoxyboryl)phenyl)ether] | 116 |  |  | 1.07 | 0.78 | 
23 | c1cc(B(OCC2CCCN2)c2ccc3sc4ccc(B(OCC5CCCN5)c5ccsc5)cc4c3c2)cs1 (centres unmarked) [Example 389, 2,8-di(3-thiophenyl-2-pyrrolidinomethoxyboryl)dibenzothiophene] | 81 | 81 |  | 0.83 | 0.83 | 
24 | NC(=O)CC(N)C(=O)OB(c1ccccc1)c1ccc(Oc2ccc(B(OC(=O)C(N)CC(N)=O)c3ccccc3)cc2)cc1 (centres unmarked) [Example 390, bis(4,4′-(phenyl-asparagineboryl)phenyl)ether] | 56 |  |  |  | 0.59 | 
25 | CN(C)CCOB(c1ccccc1)c1ccc(Oc2ccc(B(OCCN(C)C)c3ccc(CO)cc3)cc2)cc1 [Example 392, (4-(phenyl-N,N-dimethylaminoethoxyboryl)phenyl)(4′-(hydroxymethylphenyl-N,N-dimethylaminoethoxyboryl)phenyl)ether] | 83 | 83 |  | 0.91 | 0.91 | 
26 | NC(CCC(=O)O)C(=O)OB(c1ccccc1)c1ccc(Oc2ccc(B(OC(=O)C(N)CCC(=O)O)c3ccc(CO)cc3)cc2)cc1 (centres unmarked) [Example 393, (4-(phenyl-glutamic acid boryl)phenyl)(4′-(hydroxymethylphenyl-glutamic acid boryl)phenyl)ether] | 117 |  |  |  | 0.56 | 
27 | CN(C)CCOB(c1ccccc1)c1ccc(Oc2ccc(B(OCCN(C)C)c3ccccc3)cc2)cc1 [Example 395, bis(4,4′-(phenyl-N,N-dimethylaminoethoxyboryl)phenyl)ether] | 116 |  |  |  | 0.86 | 
28 | NC(CS)C(=O)OB(c1ccccc1)c1ccc(Oc2ccc(B(OC(=O)C(N)CS)c3ccc(CO)cc3)cc2)cc1 (centres unmarked) [Example 397, (4-(phenyl-cysteineboryl)phenyl)(4′-(hydroxymethylphenyl-cysteineboryl)phenyl)ether] | 70 |  | 70 |  | 0.59 | 0.59
29 | NCCNCCOB(c1ccccc1)c1ccc(COCc2ccc(B(OCCNCCN)c3ccccc3)cc2)cc1 [Example 399, bis(4,4′-(phenyl-N-aminoethyl-aminoethoxyboryl)benzyl)ether] | 53 |  | 53 |  | 0.96 | 0.96
